Calls of active or inactive are those of the source. No rule for the calls is given here.
Test system: CCRIS mutagenicity, Ames/micronucleus/aberration tests
Experiment: CCRIS mutagenicity studies
[1] = Test System: AMES SALMONELLA TYPHIMURIUM, Strain/Indicator: TA98, Metabolic Activation: NONE, Method: PREINCUBATION
[2] = Test System: AMES SALMONELLA TYPHIMURIUM, Strain/Indicator: TA100, Metabolic Activation: NONE, Method: PREINCUBATION
[3] = Test System: AMES SALMONELLA TYPHIMURIUM, Strain/Indicator: TA1535, Metabolic Activation: NONE, Method: PREINCUBATION
[4] = Test System: AMES SALMONELLA TYPHIMURIUM, Strain/Indicator: TA1537, Metabolic Activation: NONE, Method: PREINCUBATION
[5] = Test System: AMES SALMONELLA TYPHIMURIUM, Strain/Indicator: TA98, Metabolic Activation: NONE, Method: STANDARD PLATE
[6] = Test System: AMES SALMONELLA TYPHIMURIUM, Strain/Indicator: TA98, Metabolic Activation: RAT, LIVER, S-9, AROCLOR 1254, Method: STANDARD PLATE
[7] = Test System: AMES SALMONELLA TYPHIMURIUM, Strain/Indicator: TA100, Metabolic Activation: NONE, Method: STANDARD PLATE

With CC(CN1c2ccccc2Sc2ccccc21)N(C)C (centres undefined) the mutagenic call (End Point: IN VITRO CHROMOSOMAL ABERRATIONS, Test System: CHINESE HAMSTER OVARY CELLS, Metabolic Activation: NONE) was “inactive; negative”, the mutagenic call (End Point: IN VITRO CHROMOSOMAL ABERRATIONS, Test System: CHINESE HAMSTER OVARY CELLS, Metabolic Activation: RAT, LIVER, S-9, AROCLOR 1254) was “inactive; negative” and the mutagenic call (Test System: AMES SALMONELLA TYPHIMURIUM, Strain/Indicator: TA97, Metabolic Activation: HAMSTER, LIVER, S-9, AROCLOR 1254 (10 OR 30%), Method: PREINCUBATION) was “inactive; negative”. For the same compound, the mutagenic call (Test System: AMES SALMONELLA TYPHIMURIUM, Strain/Indicator: TA97, Metabolic Activation: NONE, Method: PREINCUBATION) was “inactive; negative”, the mutagenic call (Test System: AMES SALMONELLA TYPHIMURIUM, Strain/Indicator: TA97, Metabolic Activation: RAT, LIVER, S-9, AROCLOR 1254 (10 OR 30%), Method: PREINCUBATION) was “inactive; negative” and the mutagenic call (Test System: AMES SALMONELLA TYPHIMURIUM, Strain/Indicator: TA98, Metabolic Activation: HAMSTER, LIVER, S-9, AROCLOR 1254 (10%), Method: PREINCUBATION) was “inactive; negative”. The mutagenic call (Test System: AMES SALMONELLA TYPHIMURIUM, Strain/Indicator: TA98, Metabolic Activation: HAMSTER, LIVER, S-9, AROCLOR 1254 (30%), Method: PREINCUBATION) was “inactive; negative”, the mutagenic call [1] was “inactive; negative” and the mutagenic call (Test System: AMES SALMONELLA TYPHIMURIUM, Strain/Indicator: TA98, Metabolic Activation: NONE, Method: SPOT TEST) was “inactive; negative”. For the same compound, the mutagenic call (Test System: AMES SALMONELLA TYPHIMURIUM, Strain/Indicator: TA98, Metabolic Activation: RAT, LIVER, S-9, AROCLOR 1254 (10%), Method: PREINCUBATION) was “inactive; negative”, the mutagenic call (Test System: AMES SALMONELLA TYPHIMURIUM, Strain/Indicator: TA98, Metabolic Activation: RAT, LIVER, S-9, AROCLOR 1254 (30%), Method: PREINCUBATION) was “inactive; negative” and the mutagenic call (Test System: AMES SALMONELLA TYPHIMURIUM, Strain/Indicator: TA100, Metabolic Activation: HAMSTER, LIVER, S-9, AROCLOR 1254 (10%), Method: PREINCUBATION) was “inactive; negative”. For the same compound, the mutagenic call (Test System: AMES SALMONELLA TYPHIMURIUM, Strain/Indicator: TA100, Metabolic Activation: HAMSTER, LIVER, S-9, AROCLOR 1254 (30%), Method: PREINCUBATION) was “inactive; negative”, the mutagenic call [2] was “inactive; negative” and the mutagenic call (Test System: AMES SALMONELLA TYPHIMURIUM, Strain/Indicator: TA100, Metabolic Activation: RAT, LIVER, S-9, AROCLOR 1254 (10%), Method: PREINCUBATION) was “inactive; negative”. The mutagenic call (Test System: AMES SALMONELLA TYPHIMURIUM, Strain/Indicator: TA100, Metabolic Activation: RAT, LIVER, S-9, AROCLOR 1254 (30%), Method: PREINCUBATION) was “inactive; negative”, the mutagenic call (Test System: AMES SALMONELLA TYPHIMURIUM, Strain/Indicator: TA1535, Metabolic Activation: HAMSTER, LIVER, S-9, AROCLOR 1254 (10%), Method: PREINCUBATION) was “inactive; negative” and the mutagenic call (Test System: AMES SALMONELLA TYPHIMURIUM, Strain/Indicator: TA1535, Metabolic Activation: HAMSTER, LIVER, S-9, AROCLOR 1254 (30%), Method: PREINCUBATION) was “inactive; negative”. For the same compound, the mutagenic call [3] was “inactive; negative”, the mutagenic call (Test System: AMES SALMONELLA TYPHIMURIUM, Strain/Indicator: TA1535, Metabolic Activation: RAT, LIVER, S-9, AROCLOR 1254 (10%), Method: PREINCUBATION) was “inactive; negative” and the mutagenic call (Test System: AMES SALMONELLA TYPHIMURIUM, Strain/Indicator: TA1535, Metabolic Activation: RAT, LIVER, S-9, AROCLOR 1254 (30%), Method: PREINCUBATION) was “inactive; negative”. For the same compound, the mutagenic call (Test System: AMES SALMONELLA TYPHIMURIUM, Strain/Indicator: TA1537, Metabolic Activation: HAMSTER, LIVER, S-9, AROCLOR 1254 (10%), Method: PREINCUBATION) was “inactive; negative”, the mutagenic call [4] was “inactive; negative” and the mutagenic call (Test System: AMES SALMONELLA TYPHIMURIUM, Strain/Indicator: TA1537, Metabolic Activation: RAT, LIVER, S-9, AROCLOR 1254 (10%), Method: PREINCUBATION) was “inactive; negative”. The mutagenic call (Test System: CHINESE HAMSTER V-79, Strain/Indicator: V-79/6-THIOGUANINE, Metabolic Activation: NONE) was “inactive; negative” and the mutagenic call (Test System: CHINESE HAMSTER V-79, Strain/Indicator: V-79/OUABAIN, Metabolic Activation: NONE) was “inactive; negative”.
O=C(O)COc1ccc(Cl)cc1 was tested, and the mutagenic call (Test System: AMES SALMONELLA TYPHIMURIUM, Strain/Indicator: TA97, Metabolic Activation: NONE, Method: STANDARD PLATE) was “inactive; negative”, the mutagenic call (Test System: AMES SALMONELLA TYPHIMURIUM, Strain/Indicator: TA97, Metabolic Activation: RAT, LIVER, S-9, AROCLOR 1254, Method: STANDARD PLATE) was “inactive; negative” and the mutagenic call [5] was “inactive; negative”. For the same compound, the mutagenic call [6] was “inactive; negative”, the mutagenic call [7] was “inactive; negative” and the mutagenic call (Test System: AMES SALMONELLA TYPHIMURIUM, Strain/Indicator: TA100, Metabolic Activation: RAT, LIVER, S-9, AROCLOR 1254, Method: STANDARD PLATE) was “inactive; negative”. For the same compound, the mutagenic call (Test System: AMES SALMONELLA TYPHIMURIUM, Strain/Indicator: TA102, Metabolic Activation: NONE, Method: STANDARD PLATE) was “inactive; negative” and the mutagenic call (Test System: AMES SALMONELLA TYPHIMURIUM, Strain/Indicator: TA102, Metabolic Activation: RAT, LIVER, S-9, AROCLOR 1254, Method: STANDARD PLATE) was “inactive; negative”.
COc1ccc(-c2nc(-c3ccc(C)cc3)c(-c3ccc(C)cc3)[nH]2)cc1OC was tested, and the mutagenic call [5] was “active; positive”, the mutagenic call (Test System: AMES SALMONELLA TYPHIMURIUM, Strain/Indicator: TA98, Metabolic Activation: RAT LIVER S-9, 3-METHYLCHOLANTHRENE, SODIUM PHENOBARBITAL, Method: STANDARD PLATE) was “inactive; negative” and the mutagenic call [7] was “active; positive”. For the same compound, the mutagenic call (Test System: AMES SALMONELLA TYPHIMURIUM, Strain/Indicator: TA100, Metabolic Activation: RAT LIVER S-9, 3-METHYLCHOLANTHRENE, SODIUM PHENOBARBITAL, Method: STANDARD PLATE) was “inactive; negative”.
For O=[N+]([O-])c1cccc2c1[nH]c1ccccc12, the mutagenic call [5] was “active; positive”, the mutagenic call [6] was “active; positive” and the mutagenic call (Test System: AMES SALMONELLA TYPHIMURIUM, Strain/Indicator: TA98, Metabolic Activation: RAT, LIVER, S-9, PHENOBARBITAL, Method: STANDARD PLATE) was “active; positive”. For the same compound, the mutagenic call [7] was “inactive; negative”, the mutagenic call (Test System: AMES SALMONELLA TYPHIMURIUM, Strain/Indicator: TA100, Metabolic Activation: RAT, LIVER, S-9, PHENOBARBITAL, Method: STANDARD PLATE) was “inactive; negative” and the mutagenic call (Test System: AMES SALMONELLA TYPHIMURIUM, Strain/Indicator: TA1538, Metabolic Activation: NONE, Method: STANDARD PLATE) was “active; positive”. The mutagenic call (Test System: AMES SALMONELLA TYPHIMURIUM, Strain/Indicator: TA1538, Metabolic Activation: RAT, LIVER, S-9, PHENOBARBITAL, Method: STANDARD PLATE) was “active; positive”, the mutagenic call (Test System: AMES SALMONELLA TYPHIMURIUM, Strain/Indicator: TA1977, Metabolic Activation: NONE, Method: STANDARD PLATE) was “inactive; negative” and the mutagenic call (Test System: AMES SALMONELLA TYPHIMURIUM, Strain/Indicator: TA1977, Metabolic Activation: RAT, LIVER, S-9, PHENOBARBITAL, Method: STANDARD PLATE) was “inactive; negative”.
For N#Cc1ccc([N+](=O)[O-])cc1, the mutagenic call [1] was “inactive; negative”, the mutagenic call (Test System: AMES SALMONELLA TYPHIMURIUM, Strain/Indicator: TA98, Method: PREINCUBATION) was “inactive; negative” and the mutagenic call [2] was “inactive; negative”. The mutagenic call (Test System: AMES SALMONELLA TYPHIMURIUM, Strain/Indicator: TA100, Method: PREINCUBATION) was “inactive; negative”, the mutagenic call [3] was “inactive; negative” and the mutagenic call (Test System: AMES SALMONELLA TYPHIMURIUM, Strain/Indicator: TA1535, Method: PREINCUBATION) was “inactive; negative”. For the same compound, the mutagenic call [4] was “inactive; negative”, the mutagenic call (Test System: AMES SALMONELLA TYPHIMURIUM, Strain/Indicator: TA1537, Method: PREINCUBATION) was “inactive; negative” and the mutagenic call (Test System: AMES SALMONELLA TYPHIMURIUM, Strain/Indicator: TA1538, Metabolic Activation: NONE, Method: PREINCUBATION) was “inactive; negative”. For the same compound, the mutagenic call (Test System: AMES SALMONELLA TYPHIMURIUM, Strain/Indicator: TA1538, Method: PREINCUBATION) was “inactive; negative”.
In the case of CC(C)N(CC(O)COc1ccc(CC(N)=O)cc1)N=O (centres undefined), the mutagenic call (Test System: UDS HUMAN HEPATOCYTES, Strain/Indicator: THY INCORP, Metabolic Activation: NONE, Method: AUTORADIOGRAPHY) was “active; positive” and the mutagenic call (Test System: UDS RAT HEPATOCYTES, Strain/Indicator: THY INCORP, Metabolic Activation: NONE, Method: AUTORADIOGRAPHY) was “active; positive”.

From PubChem BioAssay AID1259407 (Chemical Carcinogenesis Research Information System (CCRIS), 2018)
